# Experimental data reported in publication PMC4171664 (Diabetes, 2014).
# No end group written: not given here.
# Molecular target: T1, I-A^g7 (Mus musculus, UniProt P04228+Q31135)
# T1 sequence (P04228 24-256): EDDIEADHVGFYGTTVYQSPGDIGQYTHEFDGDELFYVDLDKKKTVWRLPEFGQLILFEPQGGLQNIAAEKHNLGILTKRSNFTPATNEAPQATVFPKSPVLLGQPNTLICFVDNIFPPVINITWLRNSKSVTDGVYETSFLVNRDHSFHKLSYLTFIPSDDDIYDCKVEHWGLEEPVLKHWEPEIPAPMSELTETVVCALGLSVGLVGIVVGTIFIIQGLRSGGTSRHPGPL
# T1 sequence (Q31135 1-263): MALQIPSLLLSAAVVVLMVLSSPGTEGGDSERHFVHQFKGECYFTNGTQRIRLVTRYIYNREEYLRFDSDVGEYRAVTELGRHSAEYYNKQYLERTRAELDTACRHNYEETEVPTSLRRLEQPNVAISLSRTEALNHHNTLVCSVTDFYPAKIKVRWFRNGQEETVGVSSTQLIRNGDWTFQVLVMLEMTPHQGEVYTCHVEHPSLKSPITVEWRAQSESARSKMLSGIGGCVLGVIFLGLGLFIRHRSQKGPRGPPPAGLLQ
# Format: binding, NOD mouse
row,Sequence,IC50
1,AVDGVISVHSLHIW [292–305],5.1 µM
2,GHVAGSLAILTDAA [91–104],0.6 µM
3,GYNHKDVQANASVR [201–214],88.2 µM
4,LTIQIESAADQDPSC [345–359],1.1 µM
5,RTGIAQALSSFDLHS [330–344],5.7 µM
6,SVRAAFVHALGDVF [212–225],0.6 µM
